Measurements: patent US8592564B2, “Immunoassays for lamotrigine” (Seradyn, Inc., priority 2004, dated 2013)

System: anti-lamotrigine antibody
Experiment: Cross-reactivity of polyclonal antibody with lamotrigine metabolites
Format: binding
Details: 500 μg/mL spiked into human serum
Method: A polyclonal antisera is obtained and an assay is performed in order to determine the amount of cross-reactivity of the polyclonal antibody with lamotrigine and lamotrigine metabolites. A known amount of lamotrigine is used to react with an anti-lamotrigine antibody prepared in accordance with the present invention. The known concentration of lamotrigine is used to calculate the amount of cross-reactivity between the antibody preparation and the metabolites as follows: N-methyl (29); N-oxide (30); and N-2 gluronide (31). The percent of cross-reactivity equals 100 times the observed concentration of lamotrigine in μg/mL, which is then divided by the concentration of added metabolites in μg/mL. No cross-reactivity is observed in specimens containing those metabolites. High concentrations of these compounds are spiked into human serum and tested as samples. The metabolites are assayed and compared to control serum (no lamotrigine). Cross reactivity is calculated using the following equation: […]
Also, the cross-reactivity of N-2 oxide at 500 μg/mL is less then 3%.

SMILES	cross-reactivity
C[n+]1nc(-c2cccc(Cl)c2Cl)c(N)nc1N [N-2 methyl]	do not have any cross-reactivity
Nc1nc(N)[n+]([O-])nc1-c1cccc(Cl)c1Cl [N-2 oxide]	< 3%
